Measured values from patent US20240002362A1, “DEUTERATED 2-ARYLHETEROCYCLE-3-OXO-2,3- DIHYDROPYRIDAZINE-4-CARBOXAMIDE INHIBITOR AND PREPARATION METHOD THEREFOR AND APPLICATION THEREOF” (Shanghai Zelgen Pharma. Tech Co., Ltd., priority 2020, published 2024).

Tests used:
Format in all cases: in vivo
[1] = Pharmacokinetic test and evaluation in rats; settings: rat, po; male SD rats, gavage 2 mg/kg, plasma, n = 4, mean
Protocol: Pharmacokinetic Test and Evaluation in Rats
(§1) After male SD rats weighing about 220 g were fasted overnight, the rats were gavaged with 2 mg/kg of a solution of the compound of the present invention [CMC/TW80 as a carrier]. Blood was collected 0.5, 1.0, 2.0, 4.0, 6.0, 8.0, 12 and 24 h after the administration of the compound of the present invention, respectively, and the concentration of the compound of the present invention in plasma was determined by LC/MS/MS.

[2] = system: mouse colon cancer cells CT26.WT; assay: Pharmacodynamic test of anti-tumor activity, subcutaneous transplantation cancer model CT26.WT; settings: CT26.WT subcutaneous in nude mice; for TV (mm^3) (Tumor Volume) Day 0: Day 0 (baseline at grouping), 30 mg/Kg daily gavage; for % TGI (Tumor Growth Inhibition) / TV (mm^3) (Tumor Volume) Day 17: Day 17, 30 mg/Kg daily gavage
Protocol: Pharmacodynamic Test and Evaluation of Anti-Tumor Activity
1. Subcutaneous Transplantation Cancer Model CT26.WT
5×10^5/100 uL of mouse colon cancer cells CT26.WT were subcutaneously inoculated into the right back of nude mice. The mice were monitored daily for health condition, and the measurement was started when tumors grew to be palpable. The tumor volume was calculated by adopting the following formula: 0.5×L×W^2, wherein L and W represent tumor length and width, respectively. When the tumor grew to about 50 mm^3, the mice were randomly grouped. The mice were gavaged daily with a solution of the compound at a corresponding dose (30 mg/Kg) [CMC/TW80 as a carrier], and at the same time, the general state of the mice was monitored. After the administration was started, the mice were weighed twice in the first week, and the tumor volume was measured twice; from the second week, the mice were weighed three times a week, and the tumor volume was measured three times.

[3] = Pharmacokinetic test and evaluation in mice; settings: mouse, po; male ICR mice, gavage 2 mg/kg, plasma, n = 4, mean
Protocol: Pharmacokinetic Test and Evaluation in Mice
as §1, with “ICR mice” for “SD rats”, “20-30” for “220”, “mice” for “rats”

[4] = Pharmacokinetic test and evaluation in beagle dogs; settings: dog, po; male beagle dogs, gavage 2 mg/kg, plasma, n = 4, mean
Protocol: Pharmacokinetic Test and Evaluation in Beagle Dogs
as §1, with “beagle dogs” for “SD rats”, “6-7 Kg” for “220 g”, “beagle dogs” for “rats”

Structure (SMILES)	AUC(0-t) [1]	Cmax [1]	TV (mm^3) (Tumor Volume) Day 0 [2]	% TGI (Tumor Growth Inhibition) [2]	TV (mm^3) (Tumor Volume) Day 17 [2]	AUC(0-t) [3]	Cmax [3]	AUC(0-t) [4]	Cmax [4]
C[C@@H](CO)NC(=O)c1cc(-c2ccc(Cl)cc2)nn(-c2cnn(C)c2)c1=O [BAY-2416964, reference compound]	624 ng·h/mL	99.5 ng/mL	55.81 mm^3	24.7%	1670.91 mm^3	1490 ng·h/mL	348 ng/mL	995 ng·h/mL	211 ng/mL
[2H]C([2H])([2H])n1cc(-n2nc(-c3ccc(Cl)cc3)cc(C(=O)N[C@@H](C)CO)c2=O)cn1 [Example 2, (S)-6-(4-chlorophenyl)-N-(1-hydroxypropan-2-yl)-2-(1-(methyl-d3)-1H-pyrazole-4-yl)-3-oxo-2,3-dihydropyridazine-4-carboxamide]	990 ng·h/mL	146 ng/mL	–	–	–	850 ng·h/mL	241 ng/mL	–	–
[2H]C([2H])(O)[C@H](C)NC(=O)c1cc(-c2ccc(Cl)cc2)nn(-c2cnn(C)c2)c1=O [Example 7, (S)-6-(4-chlorophenyl)-N-(1-hydroxypropan-2-yl-1,1-d2)-2-(1-methyl-1H-pyrazole-4-yl)-3-oxo-2,3-dihydropyridazine-4-carboxamide]	736 ng·h/mL	96.6 ng/mL	–	–	–	2460 ng·h/mL	351 ng/mL	–	–
[2H]C([2H])(O)[C@H](C)NC(=O)c1cc(-c2ccc(Cl)cc2)nn(-c2cnn(C([2H])([2H])[2H])c2)c1=O [Example 8, (S)-6-(4-chlorophenyl)-N-(1-hydroxypropan-2-yl-1,1-d2)-2-(1-(methyl-d3)-1H-pyrazole-4-yl)-3-oxo-2,3-dihydropyridazine-4-carboxamide]	1390 ng·h/mL	230 ng/mL	55.68 mm^3	50.5%	1117.93 mm^3	2620 ng·h/mL	351 ng/mL	1880 ng·h/mL	294 ng/mL
